Experimental data: PubChem BioAssay AID1963875 (Molecular Pharmacology Branch, DTP, NCI, 2024)
Values joined by “and” are separate entries in the source; they are usually repeats but may differ in a detail not shown here. Identical values can stand only once.

Test system: KRAS-mutant PDC complex spheroid viability
Experiment: Anticancer human tumor 186277-243-T-J2-PDC patient-derived colon adenocarcinoma cell line growth inhibition [KRAS2]
Conditions: for viability, T/C: stronger effect = lower value
Procedure, shortened: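 Combination screen of spheroid viability in tumor-cell co-cultures with endothelial (HUVEC) and mesenchymal stem cell stroma. Each agent was tested in half-log dilutions, topping at clinical Cmax or at 10 microM without a known Cmax.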

[1] = curve of first compound, second compound 0.1 µM
[2] = curve of first compound, second compound 0.316 µM
[3] = curve of first compound, second compound 1 µM
[4] = curve of first compound, second compound 3.16 µM
[5] = curve of first compound, second compound 10 µM
[6] = second compound 0.1 µM, first compound 0.01 µM
[7] = second compound 0.1 µM, first compound 0.0316 µM
[8] = second compound 0.1 µM, first compound 0.1 µM
[9] = second compound 0.1 µM, first compound 0.316 µM
[10] = second compound 0.1 µM, first compound 1 µM
[11] = second compound 0.1 µM, first compound 3.16 µM
[12] = second compound 0.316 µM, first compound 0.01 µM
[13] = second compound 0.316 µM, first compound 0.0316 µM
[14] = second compound 0.316 µM, first compound 0.1 µM
[15] = second compound 0.316 µM, first compound 0.316 µM
[16] = second compound 0.316 µM, first compound 1 µM
[17] = second compound 0.316 µM, first compound 3.16 µM
[18] = second compound 1 µM, first compound 0.0316 µM
[19] = second compound 1 µM, first compound 0.1 µM
[20] = second compound 1 µM, first compound 0.316 µM
[21] = second compound 1 µM, first compound 1 µM
[22] = second compound 1 µM, first compound 3.16 µM
[23] = second compound 3.16 µM, first compound 0.01 µM
[24] = second compound 3.16 µM, first compound 0.0316 µM
[25] = second compound 3.16 µM, first compound 0.1 µM
[26] = second compound 3.16 µM, first compound 0.316 µM
[27] = second compound 3.16 µM, first compound 1 µM
[28] = second compound 3.16 µM, first compound 3.16 µM
[29] = second compound 10 µM, first compound 0.01 µM
[30] = second compound 10 µM, first compound 0.0316 µM
[31] = second compound 10 µM, first compound 0.1 µM
[32] = second compound 10 µM, first compound 0.316 µM
[33] = second compound 10 µM, first compound 1 µM
[34] = second compound 10 µM, first compound 3.16 µM
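For viability, T/C in this document: viability read after seven days of compound exposure; 100% = DMSO vehicle-treated spheroids so lower means less viable.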

Row | SMILES | IC50 [1] [nM] | IC50 [2] [nM] | IC50 [3] [nM] | IC50 [4] [nM] | IC50 [5] [nM] | viability, T/C [7] [%] | viability, T/C [8] [%] | viability, T/C [9] [%] | viability, T/C [10] [%] | viability, T/C [13] [%] | viability, T/C [14] [%] | viability, T/C [15] [%] | viability, T/C [16] [%] | viability, T/C [18] [%] | viability, T/C [19] [%] | viability, T/C [20] [%] | viability, T/C [21] [%] | viability, T/C [24] [%] | viability, T/C [25] [%] | viability, T/C [26] [%] | other results
1 | CC1COCCN1c1cc(-c2ccnn2C)c2ccnc(-c3ccn[nH]3)c2n1 (stereo not given) + C=CC(=O)N1CCN(c2nc(=O)n(-c3c(C)ccnc3C(C)C)c3nc(-c4c(O)cccc4F)c(F)cc23)C(C)C1 | 22 | 22.6 | 17.9 | 17 | < 10 | 32.6 | 5.89 | 4.33 | 3.67 | 31.5 | 6.35 | 4.65 | 3.68 | 24.2 | 7.17 | 5.13 | 4.4 | 15.3 | 7.75 | 5.93 | viability, T/C [6]: 87.5%; viability, T/C [11]: 4.31%; viability, T/C [12]: 94.6%; viability, T/C [17]: 4.54%; viability, T/C [22]: 5.82%; viability, T/C [23]: 79.5%; viability, T/C [27]: 6.25%; viability, T/C [28]: 8.7%; viability, T/C [29]: 19.3%; viability, T/C [30]: 11.3%; viability, T/C [31]: 9.23%; viability, T/C [32]: 8.93%; viability, T/C [33]: 11.2%; viability, T/C [34]: 14.7%
2 | CC1(C)CCC(CN2CCN(c3ccc(C(=O)NS(=O)(=O)c4ccc(NCC5CCOCC5)c([N+](=O)[O-])c4)c(Oc4cnc5[nH]ccc5c4)c3)CC2)=C(c2ccc(Cl)cc2)C1 + CC1OCC2(CCN(c3cnc(Sc4ccnc(N)c4Cl)c(N)n3)CC2)C1N | 2270 | 2350 | 2130 | 1750 | 1550 | 103 | 115 | 127 | 120 | 128 | 136 | 130 | 130 | 140 | 115 | 113 | 116 | 98.9 | 112 | 100 | viability, T/C [11]: 23.1%; viability, T/C (second compound 0.1 µM, first compound 10 µM): 0.76%; viability, T/C [17]: 22.1%; viability, T/C (second compound 0.316 µM, first compound 10 µM): 0.38%; viability, T/C [22]: 16%; viability, T/C (second compound 1 µM, first compound 10 µM): 0.34%; viability, T/C [27]: 93.8%; viability, T/C [28]: 3.38%; viability, T/C (second compound 3.16 µM, first compound 10 µM): 0.22%; viability, T/C [30]: 80.1%; viability, T/C [31]: 82.7%; viability, T/C [32]: 87.7%; viability, T/C [33]: 79%; viability, T/C [34]: 2.4%; viability, T/C (second compound 10 µM, first compound 10 µM): 0.21%
3 | CCN1CCN(Cc2ccc(Nc3ncc(F)c(-c4cc(F)c5nc(C)n(C(C)C)c5c4)n3)nc2)CC1 | – | – | – | – | – | – | – | – | – | – | – | – | – | – | – | – | – | – | – | – | viability, T/C (compound 0.00316 µM): 98.8% [middle of 4 runs]; viability, T/C (compound 0.01 µM): 98.5% [middle of 4 runs]; viability, T/C (compound 0.0316 µM): 107% [middle of 4 runs]; viability, T/C (compound 0.1 µM): 112% (2×) and 136% and 113%; viability, T/C (compound 1 µM): 101% [middle of 4 runs]; IC50 (curve of compound): > 1000 nM
4 | CCN1CCN(Cc2ccc(Nc3ncc(F)c(-c4cc(F)c5nc(C)n(C(C)C)c5c4)n3)nc2)CC1 + CC1OCC2(CCN(c3cnc(Sc4ccnc(N)c4Cl)c(N)n3)CC2)C1N | > 1000 | 839 | 574 | 326 | 102 | 113 | 148 | 161 | 60.8 | 138 | 155 | 125 | 36.8 | 138 | 125 | 82.3 | 19.9 | 97 | 85.1 | 52.2 | viability, T/C (second compound 0.1 µM, first compound 0.00316 µM): 96.9%; viability, T/C [6]: 88.9%; viability, T/C (second compound 0.316 µM, first compound 0.00316 µM): 95.2%; viability, T/C [12]: 98.7%; viability, T/C (second compound 1 µM, first compound 0.00316 µM): 88.8%; viability, T/C (second compound 1 µM, first compound 0.01 µM): 118%; viability, T/C (second compound 3.16 µM, first compound 0.00316 µM): 113%; viability, T/C [23]: 130%; viability, T/C [27]: 8.29%; viability, T/C (second compound 10 µM, first compound 0.00316 µM): 123%; viability, T/C [29]: 92.3%; viability, T/C [30]: 67%; viability, T/C [31]: 56.8%; viability, T/C [32]: 28.7%; viability, T/C [33]: 3.85%
